One block for each compound: values may come before it.
Legend:
[1] = UPLC-MS/MS statin and metabolite concentrations in vitreous of vitrectomy patients on oral statins; format: in vivo, human
Description: The study was conducted according to the tenets of the Declaration of Helsinki, and was approved by the Institutional Review Board and Ethical committee of Helsinki University Central Hospital. Twenty patients were enrolled; fifteen with per oral statin treatment and five controls. Signed informed consent was obtained from each participant prior to the vitreous sampling. Confidentiality of the patient records was maintained when the clinical data were entered into a computer-based standardized data entry for analysis. Sixteen patients were being operated due to PDR; of these, five patients had also Tractional Retinal Detachment (TRD); two patients were operated due to RRD, one due to age-related epiretinal fibrosis (pucker), and one due to a macular hole (Supplementary Table S2). […] All vitrectomies were performed by the recruiting vitreoretinal surgeon (SL). […] The samples were collected by manual aspiration into a syringe via the vitrectomy with the cutting function activated. Sample aliquots were transferred into sterile 1.5 mL microcentrifuge tubes (Freemont, CA, USA) and immediately frozen and stored at − 70 °C until laboratory analysis. […] All reference compounds and internal standards were purchased from Toronto Research Chemicals (Toronto, Canada). Samples (100 µl) were divided into two aliquots and kept at − 80 °C prior to analysis. […] Homogenizer blocks were pre-cooled by placing them at − 20 °C. […] Supernatants (120 µl) were pipetted into analytical vials and the concentrations of the statins were measured with Ultra-high Pressure Liquid Chromatography—tandem Mass Spectrometry (UPLC-MS/MS) technique. The same pre-treatment protocol was used to prepare calibration curves and quality control samples but homogenized and filtered porcine vitreous were used as a matrix instead of human vitreous. A minimum of six calibration curve concentrations was used for quantitation of the compounds. Two parallel calibration curve sets included all eleven analytes and four deuterated internal standards. Three quality control samples in three parallel sets were used to validate the method. The linear range varied from approximately 0.004 to 10 ng/mL depending on the analyte. Limit of quantitation was set to the smallest calibration curve point of each drug. Each sample was analysed twice and the average of these values was designated as the concentration of the sample. […] For rosuvastatin, two metabolites were analysed: rosuvastatin lactone and N-desmethyl rosuvastatin lactone. Rosuvastatin D6 was used as an internal standard. The parent drug, its metabolites and internal standard were analysed from the same sample in each case. Liquid chromatography separation was carried out using a Waters Acquity UPLC instrument (Waters, MA, USA) coupled with Waters HSS T3 C18 (2.1 × 100 mm, 1.8 µm) column at 40 °C. The mobile phase consisted of 0.1% formic acid in ultrapure water (A) and 100% of LC–MS grade acetonitrile (B). […] The flow rate was set to 0.3 mL/min and injection volume 1.5 µl. After every three samples, a solvent blank was run to control for any carry over. Mass spectrometry measurements were carried out using a Waters Xevo Triple Quadruple mass spectrometer (TQ-S) equipped with an ESI source. […] The source parameters were as follows: Capillary voltage 2.8 kV, source temperature 150 °C and desolvation temperature 500 °C. Nitrogen (Aga, Helsinki, Finland) was used as a desolvation gas (800 l/h), a cone gas (150 l/h) and a nebulizer gas (7 bar). Argon (Aga, Helsinki, Finland) was used as a collision gas (0.15 mL/min). The Multiple Reaction Monitoring (MRM) mode was used for quantification. Precursor and fragment ions, as well as other optimized parameters are listed in Supplementary Table S3.

ARPE-19 cells = assay: LDH release assay (cell membrane integrity); format: cell-based, human; settings: with and without LPS; Supplementary Fig. S3
Description: Cell viability was assessed by determining the amount of LDH enzyme from culture media using a commercial kit (Promega Corporation, USA) according to the manufacturer’s protocol. This assay provides information about the integrity of the plasma membranes of the cells (high LDH levels meaning cell damage). In addition, the cell viability was examined with MTT assay, as described previously. In viable cells, the mitochondrial succinate dehydrogenase enzyme can metabolize the MTT dye into formazan that absorbs light at the 550 nm wavelength.

[2] = Calculated average steady-state plasma (Eq. 1) and expected vitreal concentrations (Eq. 3); set-up: species or system human; settings: for Calc. Cv: expected vitreal, Eq. 3; for Css,av: plasma, Eq. 1
Description: The concentrations of statins and their metabolites in the vitreous were analysed (see above) and expressed as ng/mL concentrations. These concentrations were compared to published statin concentrations in plasma. […] Maximum concentrations in plasma and the area under the concentration vs time curve values were collected. The expected average statin concentrations in plasma during multiple dose treatment were calculated for the doses that the patients received in our study (Eq. 1):1 Css,av=AUCsingledose/τ where τ is the time interval between doses. The drug concentrations in plasma (C, Cmax, Css, av) include both unbound (Cu) and protein-bound drug. The values for protein binding were obtained from the summary of drug product characteristics for each statin. The free fraction of statin in plasma was calculated based on Eq. (2):2 fu=CuC
The expected drug concentrations in the patients’ vitreous samples were calculated according to Eq. (3)3 Cv=fu×Css,av
Equation (3) assumes that the vitreal drug concentrations equilibrate with the unbound drug concentrations in plasma, because only free drug is expected to cross the blood-ocular barriers.

IL-6 = assay: ELISA of LPS-induced IL-6 release from ARPE-19 cells; settings: then LPS
IL-8 = assay: ELISA of LPS-induced IL-8 release from ARPE-19 cells; settings: 24 h prior to LPS
MCP-1 = assay: ELISA of LPS-induced MCP-1 release from ARPE-19 cells; settings: 24 h prior to LPS
PVR rabbit model [3] = assay: Preclinical PVR rabbit model with intravitreal simvastatin (Kawahara et al.); format: in vivo; settings: Eq. 5; intravitreal dose 0.63 µg, dosing interval 48 h, rabbit CLivt 0.982 mL/h; study data of [16]
PVR rabbit model [4] = test system: PVR rabbit model; set-up: method as in PMID 18599521; settings: four intravitreal injections of 15 µM at intervals of two days; end point 28 days; ref [16]; cited from earlier work
[5] = free fraction of drug in plasma; ref summary of product characteristics document; cited from earlier work
[6] = patient 352, PDR, TDR, oral atorvastatin 20 mg
[7] = patient 355, PDR, oral atorvastatin 10 mg
[8] = patient 368, PDR, oral atorvastatin 40 mg
[9] = patient 430, PDR, oral atorvastatin 20 mg
[10] = patient 429, RRD, oral atorvastatin 20 mg
[11] = oral 40 mg/d, patients' vitreous
[12] = patient 347, PDR, TDR, oral simvastatin 40 mg
[13] = patient 370, PDR, oral simvastatin 40 mg
[14] = patient A101, PDR, TDR, oral simvastatin 40 mg
[15] = patient 397, PDR, oral rosuvastatin 20 mg
[16] = patient 412, PDR, oral rosuvastatin 20 mg

- Concentration in vitreous sample [1, 6]: 0.047 ng/mL
- Concentration in vitreous sample [1, 7]: 0.071 ng/mL
- Concentration in vitreous sample [1, 8]: 0.176 ng/mL
- Concentration in vitreous sample [1, 9]: 0.099 ng/mL
SMILES: CC(C)c1c(C(=O)Nc2ccccc2O)c(-c2ccccc2)c(-c2ccc(F)cc2)n1CCC(O)CC(O)CC(=O)O (stereo not shown) [2-OH Atv, 2-OH atorvastatin]

- Calc. Cv ([2]; 10 mg/d, India study [22]): 0.046 ng/mL
- Calc. Cv ([2]; 10 mg/d, Jordan study [21]): 0.024 ng/mL
- Calc. Cv ([2]; 10 mg/d, Turkey study [23]): 0.098 ng/mL
- Calc. Cv ([2]; 20 mg/d, China study [25]): 0.037 ng/mL
- Calc. Cv ([2]; 20 mg/d, UK study [26]): 0.153 ng/mL
- Calc. Cv ([2]; 20 mg/d, USA study [24]): 0.049 ng/mL
- Calc. Cv ([2]; 40 mg/d, Finland study [28]): 0.045 ng/mL
- Calc. Cv ([2]; 40 mg/d, Finland study [29]): 0.051 ng/mL
- Calc. Cv ([2]; 40 mg/d, USA study [27]): 0.082 ng/mL
- Css,av ([2]; 10 mg/d, Jordan study [21]): 0.49 ng/mL
- Css,av ([2]; 20 mg/d, China study [25]): 1.85 ng/mL
- Css,av ([2]; 20 mg/d, UK study [26]): 7.63 ng/mL
- Css,av ([2]; 40 mg/d, Finland study [28]): 2.26 ng/mL
- Css,av ([2]; 40 mg/d, Finland study [29]): 2.56 ng/mL
- Css,av ([2]; 40 mg/d, USA study [27]): 4.11 ng/mL
SMILES: CC(C)c1c(C(=O)Nc2ccccc2)c(-c2ccccc2)c(-c2ccc(F)cc2)n1CC[C@@H](O)C[C@@H](O)CC(=O)O [Atorvastatin]
- Tolerance by ARPE-19 cells (LDH and MTT) (ARPE-19 cells): well tolerated
- times lower secretion of IL-6 compared to the solvent control (IL-6; 5 µM pre-treatment for 24 h): 1.5 times
- times lower secretion of IL-6 compared to the solvent control (IL-6; 10 µM pre-treatment for 24 h): 1.6 times
- LPS-induced release of IL-8 (IL-8; 5 µM): reduced
- LPS-induced release of IL-8 (IL-8; 10 µM): reduced
- LPS-induced release of MCP-1 (MCP-1; 5 µM): reduced
- LPS-induced release of MCP-1 (MCP-1; 10 µM): reduced

- Concentration in vitreous sample [1, 7]: 0.012 ng/mL
- Concentration in vitreous sample [1, 8]: 0.039 ng/mL
- Concentration in vitreous sample [1, 10]: 0.008 ng/mL
- Concentration in vitreous sample [1, 9]: 0.017 ng/mL
SMILES: CC(C)c1c(C(=O)Nc2ccc(O)cc2)c(-c2ccccc2)c(-c2ccc(F)cc2)n1CCC1CC(O)CC(=O)O1 (stereo not shown) [4-OH Atv lactone, 4-OH atorvastatin lactone]

- Concentration in vitreous sample [1, 6]: 0.012 ng/mL
- Concentration in vitreous sample [1, 7]: 0.035 ng/mL
- Concentration in vitreous sample [1, 8]: 0.089 ng/mL
- Concentration in vitreous sample [1, 10]: 0.016 ng/mL
- Concentration in vitreous sample [1, 9]: 0.062 ng/mL
SMILES: CC(C)c1c(C(=O)Nc2ccccc2)c(-c2ccccc2)c(-c2ccc(F)cc2)n1CC[C@@H]1C[C@@H](O)CC(=O)O1 [Atv lactone, atorvastatin lactone]

- Measured Cv Average [1, 11]: 0.048 ng/mL
- Measured Cv Range (lower) [1, 11]: 0.027 ng/mL
- Measured Cv Range (upper) [1, 11]: 0.073 ng/mL
- Concentration in vitreous sample [1, 12]: 0.073 ng/mL
- Concentration in vitreous sample [1, 13]: 0.044 ng/mL
- Concentration in vitreous sample [1, 14]: 0.027 ng/mL
- therapeutic Css, average in PVR rabbit model (PVR rabbit model [3]): 13.3 ng/mL
SMILES: CCC(C)(C)C(=O)O[C@H]1C[C@@H](C)C=C2C=C[C@H](C)[C@H](CC[C@@H]3C[C@@H](O)CC(=O)O3)[C@H]21 [Simvastatin]
- effect in preclinical PVR rabbit model (PVR rabbit model [4]): Clear beneficial effects

- Concentration in vitreous sample ([1]; patient 371, PDR, dose 0* (control without reported statin treatment)): 0.019 ng/mL
- Concentration in vitreous sample [1, 15]: 0.013 ng/mL
- Concentration in vitreous sample [1, 16]: 0.026 ng/mL
SMILES: CC(C)c1nc(NS(C)(=O)=O)nc(-c2ccc(F)cc2)c1/C=C/[C@@H](O)C[C@@H](O)CC(=O)O [N-desmethyl Rsv, n-desmethyl rosuvastatin]

- Concentration in vitreous sample [1, 15]: 0.011 ng/mL
- Concentration in vitreous sample [1, 16]: 0.025 ng/mL
SMILES: CC(C)c1nc(N(C)S(C)(=O)=O)nc(-c2ccc(F)cc2)c1/C=C/[C@@H]1C[C@@H](O)CC(=O)O1 [Rsv lactone, rosuvastatin lactone]

- Concentration in vitreous sample [1, 6]: 0.023 ng/mL
- Concentration in vitreous sample [1, 7]: 0.029 ng/mL
- Concentration in vitreous sample [1, 8]: 0.063 ng/mL
- Concentration in vitreous sample [1, 10]: 0.023 ng/mL
- Concentration in vitreous sample [1, 9]: 0.032 ng/mL
SMILES: CC(C)c1c(C(=O)Nc2ccccc2O)c(-c2ccccc2)c(-c2ccc(F)cc2)n1CCC1CC(O)CC(=O)O1 (stereo not shown) [2-OH Atv lactone, 2-OH atorvastatin lactone]

- Concentration in vitreous sample [1, 12]: 0.039 ng/mL
- Concentration in vitreous sample [1, 13]: 0.019 ng/mL
- Concentration in vitreous sample [1, 14]: 0.006 ng/mL
SMILES: CCC(C)(C)C(=O)O[C@H]1C[C@@H](C)C=C2C=C[C@H](C)[C@H](CC[C@@H](O)C[C@@H](O)CC(=O)O)[C@H]21 [Sim acid, simvastatin acid]

- Concentration in vitreous sample [1, 6]: 0.022 ng/mL
- Concentration in vitreous sample [1, 7]: 0.057 ng/mL
- Concentration in vitreous sample [1, 8]: 0.209 ng/mL
- Concentration in vitreous sample [1, 10]: 0.022 ng/mL
- Concentration in vitreous sample [1, 9]: 0.12 ng/mL
SMILES: CC(C)c1c(C(=O)Nc2ccc(O)cc2)c(-c2ccccc2)c(-c2ccc(F)cc2)n1CC[C@@H](O)C[C@@H](O)CC(=O)O [4-OH Atv, 4-OH atorvastatin]

Source: article PMC7806714, “Statins for the prevention of proliferative vitreoretinopathy: cellular responses in cultured cells and clinical statin concentrations in the vitreous” (Scientific Reports, 2021)
